Where two headings read alike, the source gives them in different places. Starred links: 1 amine or outer side, 2 acyl side, 3 side chain; linkers in the order of their positions; H or OH if unused. Positions of bridges follow the written chain, without caps; N, C: chain ends. Non-standard residues stand in square brackets, D forms with d. Residues, ends and D or L forms follow the SMILES beside them. *: point of attachment. Trp(2-yl) = O=C([C@H](Cc1c([*:3])[nH]c2ccccc12)N[*:1])[*:2]; Pyridine(2,6-diCH2) = c1cc(C[*:1])nc(C[*:2])c1; X1 = O=C([C@@H]1C[C@H](N[*:3])CN1[*:1])[*:2]; oXylylene = c1ccc(C[*:2])c(C[*:1])c1; X2 = c1ccc2cc(C[*:2])c(C[*:1])cc2c1; Stearoyl = CCCCCCCCCCCCCCCCCC(=O)*; βAla = NCCC(=O)O
Target: Keap1-Maltose Binding Protein (MBP tag) (Homo sapiens, UniProt Q14145)
Sequence (Q14145 whole entry): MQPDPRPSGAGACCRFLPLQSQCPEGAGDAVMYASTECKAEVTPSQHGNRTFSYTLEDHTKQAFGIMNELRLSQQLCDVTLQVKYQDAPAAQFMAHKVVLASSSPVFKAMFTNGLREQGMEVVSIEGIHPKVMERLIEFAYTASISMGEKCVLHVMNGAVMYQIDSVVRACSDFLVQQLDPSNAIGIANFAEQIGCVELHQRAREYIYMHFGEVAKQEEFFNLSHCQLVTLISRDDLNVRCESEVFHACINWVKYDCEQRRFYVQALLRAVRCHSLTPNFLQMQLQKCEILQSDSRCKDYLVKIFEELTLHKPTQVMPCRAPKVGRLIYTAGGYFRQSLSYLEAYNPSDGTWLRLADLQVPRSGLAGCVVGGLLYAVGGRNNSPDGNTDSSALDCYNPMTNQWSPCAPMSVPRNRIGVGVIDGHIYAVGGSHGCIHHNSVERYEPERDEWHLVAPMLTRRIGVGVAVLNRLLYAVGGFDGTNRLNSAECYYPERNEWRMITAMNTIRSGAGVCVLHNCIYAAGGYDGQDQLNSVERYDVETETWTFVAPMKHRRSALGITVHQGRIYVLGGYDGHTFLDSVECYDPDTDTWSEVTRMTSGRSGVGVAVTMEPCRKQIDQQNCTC
Experiment: Nrf2-Keap1 HTRF (TR-FRET) binding assay: displacement of biotinylated ETGE peptide from Keap1-MBP
[1] = HTRF (TR-FRET), displacement of ETGE-biotin from Keap1-MBP, values banded into grades, read-out: Binding (IC50) ETGE-Keap1

Compound | IC50 | IC50 [1]
CC(C)C[C@H](NC(=O)[C@@H]1CSc2[nH]c3ccccc3c2C[C@H](NC(=O)[C@H](CCC(N)=O)NC(=O)[C@@H](N)CC(C)C)C(=O)N[C@@H](CC(=O)O)C(=O)N[C@@H](CCC(=O)O)C(=O)N[C@@H](CCC(=O)O)C(=O)N[C@@H]([C@@H](C)O)C(=O)NCC(=O)N[C@@H](CCC(=O)O)C(=O)N1)C(=O)N1CCC[C@H]1C(=O)O [Example 1, H-Leu-Gln-Trp(indol-2-yl-&^1)-Asp-Glu-Glu-Thr-Gly-Glu-Cys(&^1)-Leu-Pro-OH] (H-LQ[Trp(2-yl)]DEETGECLP-OH; thioether 3-10) | 1 to 100 nM | 
CCCCCCCCCCCCCCCCCC(=O)N[C@H]1C[C@H]2C(=O)N[C@@H](CCC(N)=O)C(=O)N[C@H]3CSCc4ccccc4CSC[C@H](NC(=O)[C@H](CCC(=O)O)NC(=O)CNC(=O)[C@H]([C@@H](C)O)NC(=O)[C@H](CCC(=O)O)NC(=O)[C@@H]4CCCN4C(=O)[C@H](CC(=O)O)NC3=O)C(=O)N[C@@H](CCCCN)C(=O)N3CCC[C@@H]3C(=O)N2C1 [Example 82, {[&^1Pro((4S)-NH-Stearyl)-Gln-Cys(&^2)-Asp-Pro-Glu-Thr-Gly-Glu-Cys(&^3)-Lys-D-Pro&^1][&^2(1,2-phenylenediyl)dimethylene&^3]}] (cyclo(CDPETGECK[dP][X1](Stearoyl)Q); linker 1-8 via oXylylene) | 1 to 100 nM | 
CC(C)C[C@H](NC(=O)[C@@H]1CSCc2cc3ccccc3cc2CSC[C@H](NC(=O)[C@H](CCC(N)=O)NC(=O)[C@@H](N)CC(C)C)C(=O)N[C@@H](CC(=O)O)C(=O)N2CCC[C@H]2C(=O)N[C@@H](CCC(=O)O)C(=O)N[C@@H]([C@@H](C)O)C(=O)NCC(=O)N[C@@H](CCC(=O)O)C(=O)N1)C(=O)N1CCC[C@H]1C(=O)NCCC(=O)N[C@@H](CCCNC(=N)N)C(=O)N[C@@H](CCCNC(=N)N)C(=O)N[C@@H](CCCNC(=N)N)C(=O)N[C@@H](CCCNC(=N)N)C(=O)N[C@@H](CCCNC(=N)N)C(=O)N[C@@H](CCCNC(=N)N)C(=O)N[C@@H](CCCNC(=N)N)C(=O)N[C@@H](CCCNC(=N)N)C(N)=O [Example 68, {[H-Leu-G1n-Cys(&^1)-Asp-Pro-Glu-Thr-G1y-Glu-Cys(&^2)-Leu-Pro-βAla-Arg8-NH2][&^1(naphthalene)2,3-diyldimethylene&^2]}] |  | 1 to 100 nM
CCCCCCCCCCCCCCCCCC(=O)N[C@H]1C[C@H]2C(=O)N[C@@H](CCC(N)=O)C(=O)N[C@H]3CSCc4cccc(c4)CSC[C@H](NC(=O)[C@H](CCC(=O)O)NC(=O)CNC(=O)[C@H]([C@@H](C)O)NC(=O)[C@H](CCC(=O)O)NC(=O)[C@@H]4CSCN4C(=O)[C@H](CC(=O)O)NC3=O)C(=O)N[C@@H](CC(C)C)C(=O)N3CCC[C@@H]3C(=O)N2C1 [Example 96, {[&^1Pro((4S)-NH-Stearyl)-Gln-Cys(&^2)-Asp-Thz-Glu-Thr-Gly-Glu-Cys(&^3)-Leu-D-Pro&^1][&^2(1,3-phenylenediyl)dimethylene&^3]}] |  | < 1 nM
CCCCCCCCCCCCCCCCCCCCCC(=O)N[C@H]1C[C@H]2C(=O)N[C@@H](CCC(N)=O)C(=O)N[C@H]3CSCc4ccccc4CSC[C@H](NC(=O)[C@H](CCC(=O)O)NC(=O)CNC(=O)[C@H]([C@@H](C)O)NC(=O)[C@H](CCC(=O)O)NC(=O)[C@@H]4CCCN4C(=O)[C@H](CC(=O)O)NC3=O)C(=O)N[C@@H](CC(C)C)C(=O)N3CCC[C@@H]3C(=O)N2C1 [Example 89, {[&^1Pro((4S)-NH-behenyl)-Gln-Cys(&^2)-Asp-Pro-Glu-Thr-Gly-Glu-Cys(&3)-Leu-D-Pro&^1][&^2(1,2-phenylenediyl)dimethylene&^3]}] | < 1 nM | 
CCCCCCCCCCCCCCCCCC(=O)N[C@H]1C[C@@H](C(=O)N[C@@H](CCC(N)=O)C(=O)N[C@H]2CSCc3ccccc3CSC[C@@H](C(=O)N[C@@H](CC(C)C)C(=O)N3CCC[C@@H]3C(N)=O)NC(=O)[C@H](CCC(=O)O)NC(=O)CNC(=O)[C@H]([C@@H](C)O)NC(=O)[C@H](CCC(=O)O)NC(=O)[C@@H]3CCCN3C(=O)[C@H](CC(=O)O)NC2=O)N(C(C)=O)C1 [Example 75, {[Acetyl-Pro((4S)-NH-Stearyl)-Gln-Cys(&^1)-Asp-Pro-Glu-Thr-Gly-Glu-Cys(&^2)-Leu-D-Pro-NH2][&^1(1,2-phenylenediyl)dimethylene^2]}] | 1 to 100 nM | 
CC/C=C\C/C=C\C/C=C\CCCCCCCC(=O)N[C@H]1C[C@H]2C(=O)N[C@@H](CCC(N)=O)C(=O)N[C@H]3CSCc4ccccc4CSC[C@H](NC(=O)[C@H](CCC(=O)O)NC(=O)CNC(=O)[C@H]([C@@H](C)O)NC(=O)[C@H](CCC(=O)O)NC(=O)[C@@H]4CCCN4C(=O)[C@H](CC(=O)O)NC3=O)C(=O)N[C@@H](CC(C)C)C(=O)N3CCC[C@@H]3C(=O)N2C1 [Example 86, {[&^1Pro((4S)-NH-α-linolenyl)-Gln-Cys(&^2)-Asp-Pro-Glu-Thr-Gly-Glu-Cys(&^3)-Leu-D-Pro&^1][&^2(1,2-phenylenediyl)dimethylene&^3]}] | < 1 nM | 
CCCCCCCCCCCCCCCCCC(=O)NCCC(=O)N[C@@H](CCCCN)C(=O)N[C@@H](CCCCN)C(=O)N[C@H]1CSCc2ccccc2CSC[C@@H](C(=O)N[C@@H](CC(C)C)C(=O)N2CCC[C@H]2C(N)=O)NC(=O)[C@H](CCC(=O)O)NC(=O)CNC(=O)[C@H]([C@@H](C)O)NC(=O)[C@H](CCC(=O)O)NC(=O)[C@@H]2CCCN2C(=O)[C@H](CC(=O)O)NC1=O [Example 57, {[Stearyl-βAla-Lys-Lys-Cys(&^1)-Asp-Pro-Glu-Thr-Gly-Glu-Cys(&^2)-Leu-Pro-NH2][&^1(1,2-phenylenediyl)dimethylene&^2]}] ({Stearoyl-βAla}-KKCDPETGECLP-NH2; linker 3-10 via oXylylene) |  | < 1 nM
CCCCCCCCCCCCCCCCCC(=O)NCCC(=O)N[C@@H](CC(C)C)C(=O)N[C@@H](CCC(N)=O)C(=O)N[C@H]1CSCc2cccc(n2)CSC[C@@H](C(=O)N[C@@H](CC(C)C)C(=O)N2CCC[C@H]2C(N)=O)NC(=O)[C@H](CCC(=O)O)NC(=O)CNC(=O)[C@H]([C@@H](C)O)NC(=O)[C@H](CCC(=O)O)NC(=O)[C@@H]2CCCN2C(=O)[C@H](CC(=O)O)NC1=O [Example 62, {[Stearyl-βAla-Leu-Gln-Cys(&^1)-Asp-Pro-Glu-Thr-Gly-Glu-Cys(&^2)-Leu-Pro-NH2][&^1(pyridine)2,6-diyldimethylene&^2]}] ({Stearoyl-βAla}-LQCDPETGECLP-NH2; linker 3-10 via Pyridine(2,6-diCH2)) |  | 1 to 100 nM
CCCCCCCCCCCCCCCCCCC(=O)N[C@H]1C[C@H]2C(=O)N[C@@H](CCC(N)=O)C(=O)N[C@H]3CSCc4ccccc4CSC[C@H](NC(=O)[C@H](CCC(=O)O)NC(=O)CNC(=O)[C@H]([C@@H](C)O)NC(=O)[C@H](CCC(=O)O)NC(=O)[C@@H]4CCCN4C(=O)[C@H](CC(=O)O)NC3=O)C(=O)N[C@@H](CC(C)C)C(=O)N3CCC[C@@H]3C(=O)N2C1 [Example 98, {[&^1Pro((4S)-NH-Nonadecanoyl)-Gln-Cys(&^2)-Asp-Pro-Glu-Thr-Gly-Glu-Cys(&^3)-Leu-D-Pro&^1][&^2(1,2-phenylenediyl)dimethylene&^3]}] | < 1 nM | 
CCCCCCCCCCCCCCCCCC(=O)NCCC(=O)N[C@@H](CC(C)C)C(=O)N[C@@H](CCC(N)=O)C(=O)N[C@H]1CSCc2cc3ccccc3cc2CSC[C@@H](C(=O)N[C@@H](CC(C)C)C(=O)N2CCC[C@H]2C(=O)O)NC(=O)[C@H](CCC(=O)O)NC(=O)CNC(=O)[C@H]([C@@H](C)O)NC(=O)[C@H](CCC(=O)O)NC(=O)[C@H](C)NC(=O)[C@H](CC(=O)O)NC1=O [Example 38, {[Stearyl-βAla-Leu-Gln-Cys(&^1)-Asp-Ala-Glu-Thr-Gly-Glu-Cys(&^2)-Leu-Pro-OH][&^1(naphthalene)2,3-diyldimethylene&^2]}] ({Stearoyl-βAla}-LQCDAETGECLP-OH; linker 3-10 via X2) |  | 1 to 100 nM
CC(C)C[C@H](NC(=O)[C@@H]1CSCc2cccc(c2)CSC[C@H](NC(=O)[C@H](CCC(N)=O)NC(=O)[C@@H](N)CC(C)C)C(=O)N[C@@H](CC(=O)O)C(=O)N[C@@H](C)C(=O)N[C@@H](CCC(=O)O)C(=O)N[C@@H]([C@@H](C)O)C(=O)NCC(=O)N[C@@H](CCC(=O)O)C(=O)N1)C(=O)N1CCC[C@H]1C(=O)NCCC(=O)N[C@@H](CCCNC(=N)N)C(=O)N[C@@H](CCCCN)C(=O)N[C@@H](CCCCN)C(=O)N[C@@H](CCCNC(=N)N)C(=O)N[C@@H](CCCNC(=N)N)C(=O)N[C@@H](CCC(N)=O)C(=O)N[C@@H](CCCNC(=N)N)C(=O)N[C@@H](CCCNC(=N)N)C(=O)N[C@@H](CCCNC(=N)N)C(N)=O [Example 16] |  | < 1 nM
CCCCCCCCCCCCCCCCCC(=O)NCCC(=O)N[C@H]1CSCc2ccccc2CSC[C@@H](C(N)=O)NC(=O)[C@H](CCC(=O)O)NC(=O)CNC(=O)[C@H]([C@@H](C)O)NC(=O)[C@H](CCC(=O)O)NC(=O)[C@H](C)NC(=O)[C@H](CC(=O)O)NC1=O [Example 28, {[Stearyl-βAla-Cys(&^1)-Asp-Ala-Glu-Thr-Gly-Glu-Cys(&^2)-NH2][&^1(1,2-phenylenediyl)dimethylene&^2]}] |  | 1 to 100 nM
CC(C)C[C@H](NC(=O)[C@H](CC(C)C)NC(=O)[C@@H]1CSCc2cc3ccccc3cc2CSC[C@H](NC(=O)[C@H](CC(C)C)NC(=O)[C@@H](N)CC(C)C)C(=O)N[C@@H](CC(=O)O)C(=O)N2CCC[C@H]2C(=O)N[C@@H](CCC(=O)O)C(=O)N[C@@H]([C@@H](C)O)C(=O)NCC(=O)N[C@@H](CCC(=O)O)C(=O)N1)C(=O)NCCC(=O)N[C@@H](CCCNC(=N)N)C(=O)N[C@@H](CCCCN)C(=O)N[C@@H](CCCCN)C(=O)N[C@@H](CCCNC(=N)N)C(=O)N[C@@H](CCCNC(=N)N)C(=O)N[C@@H](CCC(N)=O)C(=O)N[C@@H](CCCNC(=N)N)C(=O)N[C@@H](CCCNC(=N)N)C(=O)N[C@@H](CCCNC(=N)N)C(N)=O [Example 58] |  | < 1 nM

From US20200255478A1, “NOVEL COMPOUNDS ACTIVATING THE NRF2 PATHWAY” (Almirall, S.A., priority 2017, published 2020)
